# Measured values taken from patent US12365651B2, “Use of pirfenidone and derivatives for modulation of B lymphocyte activity and organ protection from acute tissue damage” (Washington University, priority 2017, dated 2025).
# How the values were obtained:
# [1] = system: wild-type (WT) mice (C57BL/6J); experiment: Closed-chest ischemia (90 minutes) reperfusion (I/R) injury; format: in vivo, mouse
# Protocol: Ischemia Reperfusion (I/R) Injury. Hearts from wild-type (WT) mice (C57BL/6J; purchased from Jackson Laboratory) were subjected to ischemia reperfusion (I/R) injury, using the closed-chest ischemia reperfusion model developed by Entman and colleagues (34), and modified as we have described previously (15). For the studies described herein we used 9-10 week old mice that were instrumented, then at 1 week post instrumentation were anesthetized with 1.5% isoflurane, and subjected to 90 minutes of closed-chest ischemia, followed by reperfusion for 2 weeks.
# In order to administer Pirfenidone, mice were fed powdered chow mixed with Pirfenidone (eNovation Chemicals, Bridgewater, NJ, USA, Cat #D404655) at 0.5% in weight or powdered chow alone. […] Unless specifically noted, mice were switched to a diet enriched with Pirfenidone 3 days prior to DT-induced injury or I/R-injury, and maintained on this diet throughout the duration of the experiments. In parallel studies, we fed mice normal chow prior to I/R injury and then administered Pirfenidone acutely at the time of cardiac injury. For these latter studies, mice were injected i.p. with diluent (200 μL phosphate-buffered solution [PBS]) or i.p. with Pirfenidone (200 μL of Pirfenidone [5 mg/mL] in PBS) after reperfusion and the morning after I/R injury (2 injections total). They were switched to Pirfenidone-enriched diet or control diet the evening of I/R injury and maintained on the same diet until completion of the experiment.
# Rosa26-DT Mlc2v-Cre and littermate control WT mice were euthanized 14 days after DT injection, and the hearts were removed and weighed to determine the heart-weight-to-tibia-length-ratio. WT mice were euthanized 14 days after I/R injury and the hearts were removed and weighed to determine the heart-weight-to-tibia-length-ratio. Hearts were processed, paraffin-embedded, and stained with hematoxylin/eosin and Masson's trichrome, as described (38). TUNEL staining was performed with the Millipore (Burlington, MA, USA) S7200 ApopTag Peroxidase In Situ Oligo Ligation Apoptosis Detection Kit according to the manufacturer's instruction.
# Image acquisition. Ultrasound examination of the cardiovascular system was performed using a Vevo 2100 Ultrasound System (VisualSonics Inc, Toronto, Ontario, Canada) equipped with a 30 MHz linear-array transducer, as previously described (15).
# Imaging Protocol. Mice were imaged by echocardiography at the time of ischemia and 2 weeks after reperfusion to evaluate LV structure and function, as described (39). The echocardiographer was blinded to study group assignment. Animals with poor acoustic windows or small areas at risk (<0.45) at the time of ischemia were excluded from further analysis.
# For flow cytometry experiments, mice were euthanized in a CO2 chamber and the hearts were perfused with cold PBS, carefully dissected from extracardiac tissue under a stereo microscope, finely minced, suspended in 3 ml of DMEM, and then digested with 120 U of DNAse (Sigma), 180 U of hyaluronidase (Sigma) and 1350 U of Collagenase (Sigma) for 60 minutes at 37Co. The digested material was filtered through 40 μm filters and pelleted by centrifugation (250×g for 3 minutes at 4° C.) in HBSS supplemented with 2% FCS+0.2% bovine serum albumin (BSA). Red blood cells were lysed in ACK lysis buffer (Invitrogen) for 15′ on ice and the remaining cells were resuspended in 300 μL of FACS buffer (PBS with 2% FCS and 2 mM EDTA). Cultured cells were collected for FACS analysis as described above and resuspended in 300 μL of FACS buffer. Samples were labeled with the fluorescently conjugated antibodies outlined in the table below. Cells were stained for 45 minutes on ice, and washed in FACS buffer prior to analysis. All antibodies from Biolegend were used at 0.2 μL per 300 μL sample, while antibodies from BD biosciences were used at 0.4 μL per 300 μL sample. FACS was performed on Beckton Dickinson analyzers (LSRII, Canto, X20 or Fortessa). […]
# [2] = system: Peritoneal derived inflammatory cells; experiment: In vitro immunomodulatory effect of tested PEG compounds (CD86 on CD19+ cells, LPS); format: cell-based, mouse; settings: LPS 100 ng/ml, 24 h, various concentrations
# Protocol: Peritoneal derived inflammatory cells were collected on day for post intraperitoneal injection of Thyoglicollate. Cells were cultured for 24 h in baseline condition (control), in the presence of LPS 100 ng/ml (LPS) or in the presence of LPS 100 ng/ml and various concentrations of different forms of Pegylated Pirfenidone (named C2 and C3 in FIG. 11A and C4 to C6 in FIG. 11B)). After the 24 h in culture cells were collected and analyzed via flow cytometry to assess the expression of CD86 on CD19+ cells (B lymphocytes). […] FIG. 11C reports the molecular weights of the tested forms of PEGylated Pirfenidone and the molecular weight (MW) ration between the tested compound and Pirfenidone).
# [3] = Pirfenidone chow from 3 days prior to I/R, 2 weeks post I/R, vs control
# [4] = day 4 post I/R, Pirfenidone vs control
smiles,measurement,setting,value
"Cc1ccc(=O)n(-c2ccccc2)c1 [Pirfenidone, 5 methyl-1-phenyl-2-[H] pyridone]",LVEF,"[1]; B-cell depleted (anti-CD20) + Pirfenidone vs B-cell depleted mice, 2 weeks after I/R, p=0.15",no significant difference
same,LV mass,"[1]; B-cell depleted (anti-CD20) + Pirfenidone vs B-cell depleted mice, 2 weeks after I/R, p=0.21",no significant difference
same,LV end-diastolic volume,"[1]; B-cell depleted (anti-CD20) + Pirfenidone vs B-cell depleted mice, 2 weeks after I/R, p=0.40",no significant difference
same,percentage of trichrome positive myocardium,"[1]; B-cell depleted (anti-CD20) + Pirfenidone vs B-cell depleted mice, 2 weeks after I/R, p=0.43",no significant difference
same,heart-weight-to-tibia length ratio,"[1]; B-cell depleted (anti-CD20) + Pirfenidone vs B-cell depleted mice, 2 weeks after I/R, p=0.75",no significant difference
same,"area at risk (segmental wall motion score index, SWMSI)","[1]; Pirfenidone chow from 3 days prior to I/R vs control, p=0.68",no difference
same,LV end-diastolic volumes,[1]; [3],significant (p=0.02) decrease
same,LVEF,[1]; [3],trend (p=0.08) towards improvement
same,heart-weight-to-tibia length ratio,[1]; [3],significant decrease
same,LV mass measured by 2-D echocardiography,"[1]; Pirfenidone chow from 3 days prior to I/R, 2 weeks post I/R, vs control, p=0.03",significant decrease
same,percentage of myocardium exhibiting collagen staining with Masson's trichrome,"[1]; Pirfenidone chow from 3 days prior to I/R, at 2 weeks, vs normal chow, p=0.4",no significant difference
same,heart-weight/tibia length ratio,"[1]; acute administration of Pirfenidone after reperfusion then chow 14 days, vs diluent, p=0.015",significantly (p=0.015) reduced
same,area at risk,"[1]; acute administration of Pirfenidone after reperfusion, vs diluent, p=0.47",not different
same,CD19+ lymphocytes,[1]; [4],significant (p<0.001) reduction
same,subset of CD19+CD11b− B lymphocytes,[1]; [4],significant (p<0.001) reduction
same,number of myocardial CD19+ CD86high,"[1]; following I/R injury, day 4",significant (p<0.03) decrease
same,expression of CD86 on CD19+ cells,[2],reduced
